# Active and inactive are the calls of the source. The rule behind the calls is not given here.
# Key:
# L1210 [1] = assay: Cytotoxicity against mouse L1210 cells by MTT assay; format: functional, cell-based
# L1210 [2] = assay: Cytotoxicity against mouse L1210 cells assessed as cell lysis after 24 hrs by trypan blue assay; format: functional, cell-based
# L1210 [3] = assay: Cytotoxicity against mouse L1210 cells assessed as cell viability by trypan blue assay; format: functional, cell-based
# Staphylococcus aureus [4] = assay: Antimicrobial activity against methicillin-resistant Staphylococcus aureus COL MB5393; format: functional, organism-based
# P388 = assay: In vivo antitumor activity against mouse P388 cells assessed as increase in life span at 5 mg/kg, ip for 5 days; format: functional
# Proteus vulgaris = assay: Antimicrobial activity against Proteus vulgaris MB838; format: functional
# [5] = tested on: Pectobacterium atrosepticum; assay: Antimicrobial activity against Erwinia atroseptica MB1159; format: functional
# Escherichia coli = assay: Antimicrobial activity against Escherichia coli MB1418; format: functional
# Pseudomonas aeruginosa = assay: Antimicrobial activity against Pseudomonas aeruginosa MB2824; format: functional
# Staphylococcus aureus [6] = assay: Antimicrobial activity against Staphylococcus aureus MB108; format: functional
# Enterococcus faecium = assay: Antimicrobial activity against Enterococcus faecium MB5572; format: functional
# Bacillus subtilis = assay: Antimicrobial activity against Bacillus subtilis MB964; format: functional
# [7] = Antitumor activity against human myeloid leukemia cells xenografted mouse at 3 mg/kg, iv for 14 days; format: functional, Leukemia cell
smiles,measurement,setting,value
COc1cccc2c1C(=O)c1c(O)c3c(c(O)c1C2=O)C[C@@](O)(C(=O)CO)C[C@@H]3O[C@H]1C[C@H](N)[C@H](O)[C@H](C)O1 [DOXORUBICIN],IC50,L1210 [1],0.2 µg/mL
same,Activity,L1210 [2],inactive
same,IC50,L1210 [3],< 0.1 µg/mL
same,IC50,Staphylococcus aureus [4],16 µg/mL
CC1=C2C(=C[C@@](C)(CO)[C@@H]2O)C(=O)[C@](C)(O)C12CC2,Activity,P388,inactive
C=C1C(=O)C2=C(C[C@](C)(C(=O)O)C2)[C@](C)(O)C12CC2 [ILLUDINIC ACID],MIC,Proteus vulgaris,> 125 µg/mL
same,IC50,L1210 [1],15 µg/mL
same,Activity,L1210 [2],inactive
same,MIC,[5],> 125 µg/mL
same,MIC,Escherichia coli,125 µg/mL
same,MIC,Pseudomonas aeruginosa,> 125 µg/mL
same,MIC,Staphylococcus aureus [6],1 µg/mL
same,MIC,Enterococcus faecium,> 125 µg/mL
same,IC50,L1210 [3],10 µg/mL
same,MIC,Bacillus subtilis,16 µg/mL
same,MIC,Staphylococcus aureus [4],16 µg/mL
CN[C@H](CC(C)C)C(=O)N[C@H]1C(=O)N[C@@H](CC(N)=O)C(=O)N[C@H]2C(=O)N[C@H]3C(=O)N[C@H](C(=O)N[C@H](C(=O)O)c4cc(O)cc(O)c4-c4cc3ccc4O)[C@H](O)c3ccc(c(Cl)c3)Oc3cc2cc(c3O[C@@H]2O[C@H](CO)[C@@H](O)[C@H](O)[C@H]2O[C@H]2C[C@](C)(N)[C@H](O)[C@H](C)O2)Oc2ccc(cc2Cl)[C@H]1O [VANCOMYCIN],IC50,L1210 [1],> 1000 µg/mL
same,Activity,L1210 [2],inactive
same,IC50,L1210 [3],> 1000 µg/mL
CC1=C2C(=O)C(C)(C)C=C2C(=O)[C@](C)(O)C12CC2 [DEHYDROILLUDIN M],Activity,[7],75%
CC1=C2CC(C)(C)C=C2C(=O)[C@](C)(O)C12CC2 [DEOXYILLUDIN M],Activity,P388; route intraperitoneal,24%
